Columns and labels:
MEF cells = assay: NAD+ induction in MEF cells; assay type: cell-based; conditions: MEF mouse fibroblast, 2 hours, NARH and NR 0.5 mM
Protocol: (§1) MEF cells were treated with dihydronicotinic acid riboside (NARH) and nicotinamide riboside (NR), alone or in combination for 2 hours. NARH and NR were used at the concentration of 0.5 mM. After treatment, cells were trypsinized and collected for NAD+ and protein content measurements. NAD+ was extracted and quantified using an EnzyChrom NAD/NADH Assay Kit (BioAssay Systems; #E2ND-100) according to the manufacturer's instructions. Proteins were quantified with BCA Protein Assay Kit (Pierce™; #23225). All results are expressed as mean+/−SD of n=2. NARH vs control P=0.7581; NR vs control P=0.5337; NRH+NR vs control P=0.0002.
as §1, with “#23225).” for “#23225). All results are expressed as mean+/−SD of n=2. NARH vs control P=0.7581; NR vs control P=0.5337; NRH+NR vs control P=0.0002.”

RAW 264.7 cells = assay: NAD+ induction in RAW 264.7 cells; assay type: cell-based; conditions: RAW 264.7 mouse macrophages, 2 hours, NARH and NR 0.5 mM
Protocol: as §1, with “RAW 264.7” for “MEF”, “scraped” for “trypsinized”, “n=2-4.” for “n=2.”, “P=0.8130;” for “P=0.7581;”, “P=0.0788;” for “P=0.5337;”, “P=0.0087.” for “P=0.0002.”
as §1, with “RAW 264.7” for “MEF”, “scraped” for “trypsinized”, “#23225).” for “#23225). All results are expressed as mean+/−SD of n=2. NARH vs control P=0.7581; NR vs control P=0.5337; NRH+NR vs control P=0.0002.”

Structure (SMILES)	NAD+ induction (MEF cells)	NAD+ induction (RAW 264.7 cells)
NC(=O)c1ccc[n+]([C@@H]2O[C@H](CO)[C@@H](O)[C@H]2O)c1 [NR, nicotinamide riboside]	not NARH or NR alone, induces NAD+	not NARH or NR alone, induces NAD+
O=C(O)C1=CN([C@@H]2O[C@H](CO)[C@@H](O)[C@@H]2O)C=CC1 [NARH, dihydronicotinic acid riboside]	not NARH or NR alone, induces NAD+	not NARH or NR alone, induces NAD+

From patent US20240245714A1, “COMPOSITION AND METHODS USING COMBINATION OF NARH AND NR TO PRODUCE INTRACELLULAR NICOTINAMIDE ADENINE DINUCLEOTIDE (NAD+)” (SOCIETE DES PRODUITS NESTLE S.A., priority 2021, published 2024)
